Data from the supplement of paper PMC7600603.

How the values were obtained:
[1] = system: DLD1 NRF2-GOF; experiment: TC50 cytotoxicity; higher = less toxic; details: 72 h; CellTox Green cytotoxicity
Summary of the method: (§1)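 After growth in DMEM with 10% FBS, NRF2 wild-type and CRISPR-edited isogenic DLD1 cells were seeded in 384-well plates and given library compounds at 5 concentrations across a 10,000-fold range. Fluorescence from CellTox Green was taken on a Pherastar FS reader after 72 h and normalised against vehicle wells and 100-μM positive-control wells. From logistic dose-response fits of cytotoxicity came the TC50 and the drug sensitivity score, a normalised area under the curve.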

[2] = system: DLD1 NRF2-WT; experiment: TC50 cytotoxicity; higher = less toxic; details: 72 h; CellTox Green cytotoxicity
Summary of the method: as §1

[3] = system: DLD1 NRF2-GOF; details: 72 h; CellTiter-Glo viability
Summary of the method: (§2)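 Cells grown in DMEM with 10% FBS were isogenic DLD1 colorectal cancer lines, NRF2 wild-type or CRISPR gain-of-function. In 384-well plates they received library compounds at 5 concentrations over a 10,000-fold range for 72 h before CellTiter-Glo readout on a Pherastar FS reader, normalised to vehicle wells and 100-μM positive-control wells. Dose-response fits used a four-parameter logistic model, from which EC50 and drug sensitivity score, a normalised area under the curve, were obtained.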

[4] = system: DLD1 NRF2-WT; details: 72 h; CellTiter-Glo viability
Summary of the method: as §2

[5] = system: DLD1 NRF2-GOF; experiment: drug sensitivity score (DSS) cytotoxicity (DSS score); higher = more toxic; extreme values may be limits of the assay; details: 72 h; CellTox Green cytotoxicity
Summary of the method: as §1

[6] = system: DLD1 NRF2-WT; experiment: as above; details: 72 h; CellTox Green cytotoxicity
Summary of the method: as §1

[7] = system: DLD1 NRF2-GOF; experiment: drug sensitivity score (DSS) viability (DSS score); higher = more sensitive; extreme values may be limits of the assay; details: 72 h; CellTiter-Glo viability
Summary of the method: as §2

[8] = system: DLD1 NRF2-WT; experiment: as above; details: 72 h; CellTiter-Glo viability
Summary of the method: as §2

SMILES | TC50 cytotoxicity [1] [nM] | TC50 cytotoxicity [2] [nM] | EC50 viability [3] [nM] | EC50 viability [4] [nM] | drug sensitivity score [5] | drug sensitivity score [6] | drug sensitivity score [7] | drug sensitivity score [8]
CCn1c(-c2nonc2N)nc2cnc(Oc3cccc(NC(=O)c4ccc(OCCN5CCOCC5)cc4)c3)cc21 | 1550 | > 10000 | 2300 | 1990 | 6.1 | 1.2 | 6.3 | 5.4
CCn1c(C(=O)N(C2CC2)C2CC2)cc2c3c(ncn3C)c(Nc3cc(C)n(C)n3)nc21 | > 10000 | > 10000 | 1170 | 218 | 0 | 0 | 7.1 | 7.2
CNC(=O)c1ccccc1Nc1nc(Nc2ccc3c(c2OC)CCC[C@H](N2CCN(CCO)CC2)C3)ncc1Cl |  | 1210 | 450 | 610 | 1.8 | 3 | 9.3 | 9.2
CO[C@@H](C)Cn1c(=O)n(C)c2cnc3ccc(-c4cncc(C(C)(C)O)c4)cc3c21 | > 2500 | > 2500 | 194 | 171 | 0 | 0 | 9.5 | 10.5
C[C@@H](Oc1ccc2[nH]nc(/C=C/c3cnn(CCO)c3)c2c1)c1c(Cl)cncc1Cl | > 1000 | > 1000 | > 1000 | > 1000 | 0 | 0 | 2 | 1.4
Cc1ccc(C(=O)N(CCCN)[C@@H](c2oc3cc(Cl)ccc3c(=O)c2Cc2ccccc2)C(C)C)cc1 | > 100 |  | 3.1 | 2.8 | 1.5 | 2.8 | 13.5 | 12.7
Cc1nc(Nc2n[nH]c3c2CN(C(=O)N[C@H](CN(C)C)c2ccccc2)C3(C)C)c2sccc2n1 | > 10000 |  | 21.5 | 21 | 1.8 | 2.1 | 27.5 | 28.2
Cn1cc(-c2[nH]c3cc(NC(=O)[C@H](N)C4CCCCC4)cc4c3c2C=NNC4=O)cn1 |  | > 10000 | 812 | 878 | 2.7 | 1 | 8.8 | 9
NC[C@@](O)(c1ccc(Cl)cc1)c1ccc(-c2cn[nH]c2)cc1 | > 10000 | > 10000 | 435 | 1 | 0 | 0 | 10.6 | 10.8
O=C(NC[C@H](O)CN1CCc2ccccc2C1)c1cc(NC2COC2)ncn1 | > 10000 | > 10000 | > 10000 | > 10000 | 0 | 0 | 2.4 | 3
O=C(NCc1ccncc1)C12CC3CC(C1)CC(c1ccc(Cl)cc1)(C3)C2 | > 50000 | > 50000 | 4090 | 5140 | 0.3 | 0 | 9 | 8.7
COc1ccc(S(=O)(=O)Nc2cccnc2Nc2ccc(O)cc2)cc1 [ABT-751] | 1070 |  | 301 | 269 | 3.6 | 2.1 | 14.4 | 15.3
CC1CCC(n2c3cnccc3c3cnc(Nc4ccc5c(n4)CCN(C(=O)CO)C5)nc32)CC1 (centres undefined) [AMG-925] |  |  | > 1000 | 99.7 |  |  | 0.5 | 3.2
Cc1sc2c(c1C)C(c1ccc(Cl)cc1)=N[C@@H](CC(=O)Nc1ccc(OCCOCCOCCOCCNc3cccc4c3C(=O)N(C3CCC(=O)NC3=O)C4=O)cc1)c1nnc(C)n1-2 (some centres undefined) [ARV-825] | > 300 |  | 36.5 | 12.9 | 1.1 | 4 | 5 | 9.1
Cc1[nH]nc(C(F)(F)F)c1Cc1sc2c(c1C(=O)N1C[C@](C)(O)CO1)c(=O)n(C)c(=O)n2C(C)C [AZD3965] |  |  | 92.6 | > 1000 |  |  | 3.5 | 2.3
CO[C@H]1C(=O)[C@]2(C)[C@@H](OC)C[C@H]3OC[C@@]3(OC(C)=O)[C@H]2[C@H](OC(=O)c2ccccc2)[C@]2(O)C[C@H](OC(=O)[C@H](O)[C@@H](NC(=O)OC(C)(C)C)c3ccccc3)C(C)=C1C2(C)C [Cabazitaxel] | > 1000 |  | 1.6 | 1.5 | 0.3 | 6.6 | 25.7 | 27.1
N.N.[Cl][Pt][Cl] [Cisplatin] |  |  | 30600 | 27900 | 1.2 | 1.4 | 4.8 | 5.2
CCN(CC)CCOc1ccc(/C(=C(/Cl)c2ccccc2)c2ccccc2)cc1 [Clomifene] |  |  | 1840 | 3080 |  |  | 7.8 | 5.4
Cc1c2oc3c(C)ccc(C(=O)N[C@@H]4C(=O)N[C@H](C(C)C)C(=O)N5CCC[C@H]5C(=O)N(C)CC(=O)N(C)[C@@H](C(C)C)C(=O)O[C@@H]4C)c3nc-2c(C(=O)N[C@@H]2C(=O)N[C@H](C(C)C)C(=O)N3CCC[C@H]3C(=O)N(C)CC(=O)N(C)[C@@H](C(C)C)C(=O)O[C@@H]2C)c(N)c1=O [Dactinomycin] | > 1000 |  | 1.3 | 6.7 | 0 | 1.4 | 31.3 | 24.8
COc1cccc2c1C(=O)c1c(O)c3c(c(O)c1C2=O)C[C@@](O)(C(C)=O)C[C@@H]3O[C@H]1C[C@H](N)[C@H](O)[C@H](C)O1 [Daunorubicin] |  |  | 165 | 156 |  |  | 7.2 | 8.3
